Assay type in all cases: cell-based, human
For assay [1], the system named is IκBα (NF-κB activation) in A549 cells. Kind of assay: Western blot of IκBα phosphorylation and degradation (NF-κB activation) in A549 cells. Conditions: loxoribine 10 μg/ml or Poly U 10 μg/ml. On the procedure:
FIG. 3 TLR7 and TLR8 lead to IκBα phosphorylation, but not degradation. A549 cells were untreated or treated with TNF-α (10 ng/ml) (A, B), loxoribine (10 μg/ml) (C, D), or Poly U (10 μg/ml) (E, F) for the indicated periods of time. The cell lysates were analyzed by immunoblot with anti-phospho-specific IκBα, anti-IκBα and anti-actin antibodies (A, C, E). Quantification of the bands was realized using Image J software (B, D, F). Histograms represent the intensity of each band observed in the blots at the indicated time point and are expressed in arbitrary units normalized to actin intensity (relative intensity) both for phospho-IκBα and IκBα. Results are representative of three independent experiments.
A549 cells (1.10^6 cells) were starved for 4 hours in medium containing 2% FCS, and then stimulated with loxoribine, PolyU, or TNFα (10 ng/ml) for different periods of time as indicated. Cells were lysed in 50 mM Tris-HCl, pH 7.5, 150 mM NaCl, 2 mM EDTA, 0.5% triton X100, 2 mM Na3VO4, 10 mM NaF, and 10 mM sodium pyrophosphate supplemented with a complete protease inhibitor cocktail (Boehringer, Paris, France). Protein contents in the cell lysates were quantified using the quick start Bradford protein assay kit (Biorad, Marnes-La-Coquette, France) to ensure that all samples contained similar amounts of protein. Proteins (30 μg) were resolved in 10% Tris-glycine polyacrylamide gels (Invitrogen, Cergy Pontoise, France) and transferred to PVDF immobilon-P membranes (Millipore, Molsheim, France). Blots were probed with monoclonal antibody against phospho-IκBα (Cell Signaling Technology, Danvers, USA), total IκBα, and actin (Santa Cruz, Le Perray en Yvelines, France).
In order to determine if the TLR7 and 8 expressed by lung tumor cell lines were able to induce intracellular signaling pathways, we studied NF-κB activation in response to stimulation with TNFα, loxoribine (homodimeric TLR7 ligand), or Poly U (homodimeric TLR8 ligand). […] In contrast TLR7 or 8 stimulation led to atypical NF-κB activation. […] Furthermore, we also observed that the kinetics of IκBα phosphorylation were dependent on the stimulus. On the one hand, TNFα stimulation induced two waves of IκBα phosphorylation; the first one after ten minutes was associated with IκBα degradation, and the second one after sixty minutes was not associated with IκBα degradation. On the other hand, we observed that TLR stimulation induced only a phosphorylation of IκBα, with a maximum phosphorylation obtained after thirty minutes without degradation of IκBα.

Another assay has as its system A549 cells. Kind of assay: Cell cycle analysis (propidium iodide staining). Conditions: PI staining. On the procedure: (§1) FIG. 4 TLR7 and 8 induce survival of lung tumor cells. (A) A549 cells were unstimulated, stimulated with loxoribine (10 μg/ml), Poly U (10 μg/ml), or Gardiquimod(10μg/ml) and incubated with Alamar blue for 10 days. Reduction of Alamar blue was then determined by spectrophotometry at 570 and 600 nm. The percentage of reduced Alamar blue was calculated as described by the manufacturer. A549 cells were unstimulated or stimulated with loxoribine, Poly U, Gardiquimod, etoposide, or cycloheximide for 24 h. (B) The percentage of dead cells was determined by Trypan blue exclusion. (C) The DNA content was measured by IP staining after RNAse A treatment. The percentages indicate the proportion of subdiploid (G0/G1) and […]. Data represent mean values±SD from 3 independent experiments (*p<0.05; ** p<0.01, Student test). (D) A549 cells were cultured for 6 h in the presence of loxoribine, Poly U, or Gardiquimod, and the expression of Bcl-2 was assayed using Taq Man Low Density Array technology. The ΔCT values for Bcl-2 expression were calculated by subtraction of the CT value obtained for the 18S housekeeping gene. The ΔΔCT values were obtained by subtraction of ΔCT values for unstimulated cells from those obtained for stimulated cells. The fold increase (arbitrary unit) was obtained by 2^−ΔΔCT.
A549 cells were cultured in the presence of loxoribine, Poly U, Gardiquimod, etoposide, or cycloheximide. After 48 h, the cells were harvested, washed in cold PBS, and fixed with 2 ml of 70% cold ethanol in PBS for 2 h at 4° C. After centrifugation, the supernatant was removed and the pellet was rinsed with 0.5% PBS Tween. It was then incubated with […] of RNAse A and 50 μg of propidium iodide in PBS. Propidium iodide staining was determined with a FACScalibur cytometer.

For assay [2], the system named is Bcl-2 expression in A549 cells. Briefly: Bcl-2 expression, Taq Man Low Density Array, A549. The conditions noted are these: 6 h, RT-PCR. On the procedure:
as §1, with “The fold increase (arbitrary unit) was obtained by 2^−ΔΔCT.” left out
Total RNA was extracted from A549 or SK-MES cells stimulated with loxoribine, Poly U, or Gardiquimod for 6 h or from purified human lung cancer cells using the RNeasy isolation-kit RNA (Qiagen, Courtaboeuf, France). The integrity and the quantity of the RNA were evaluated with a bioanalyzer-2100 (Agilent Technologies). All samples were assessed for gene expression analysis using the Taq Man Low-Density Array angiogenesis and immune panel (Applied Biosystem). […] Quantitative real-time TaqMan-PCR was performed using Low-Density-Arrays and the 7900 robotic real-time PCR-system (Applied-Biosystems). […] Data were analyzed using the SDS Software v2.2 (Applied-Biosystems). The ΔCT values were calculated for each gene by subtraction of the CT value of the 18S housekeeping gene from the CT of the gene of interest. […]

Assay [3] concerns Bcl-2 expression in SCC SK-MES cells. Briefly: Bcl-2 expression, SK-MES. The conditions noted are these: data not shown. On the procedure: Total RNA was extracted from A549 or SK-MES cells stimulated with loxoribine, Poly U, or Gardiquimod for 6 h or from purified human lung cancer cells using the RNeasy isolation-kit RNA (Qiagen, Courtaboeuf, France). The integrity and the quantity of the RNA were evaluated with a bioanalyzer-2100 (Agilent Technologies). All samples were assessed for gene expression analysis using the Taq Man Low-Density Array angiogenesis and immune panel (Applied Biosystem). The RT-PCR experiments were carried-out according to the manufacturer's instructions (Applied-Biosystems). Quantitative real-time TaqMan-PCR was performed using Low-Density-Arrays and the 7900 robotic real-time PCR-system (Applied-Biosystems). The 18S primers and probes were used as internal controls. Data were analyzed using the SDS Software v2.2 (Applied-Biosystems). The ΔCT values were calculated for each gene by subtraction of the CT value of the 18S housekeeping gene from the CT of the gene of interest. The ΔΔCT values were obtained by subtraction of the ΔCT values for unstimulated cells from the […]. The fold increase (arbitrary unit) was obtained by 2^−ΔΔCT.

A further assay deals with A549 and SK-MES cells. Briefly: Chemoresistance assay (Trypan blue and Alamar blue). The conditions noted are these: Alamar blue reduction. The method, then:
FIG. 5 TLR7 and 8 induce chemoresistance of lung tumor cells. A549 (A-C) or SK-MES cells (D-F) were cultured with or without loxoribine or Poly U for 48 h, and then left untreated or were treated with cycloheximide, cisplatine, carboplatine, doxorubicine, or Navelbine. After 36 h, the percentage of dead cells was determined by Trypan blue exclusion (A, D) and cell viability was analyzed by the reduction of Alamar blue (B, C, E and F). Data represent mean values±SD from 3 independent experiments (*p<0.05; **p<0.01, ***p<0.001, Student test).
A549 and SK-MES cells were seeded in 96-well plates (1000 cells per well) and left unstimulated or were stimulated with loxoribine, Poly U, or Gardiquimod for 48 h. Cisplatine, carboplatine, doxorubicine, Navelbine, or cycloheximide was then added for an additional 36 h. The optical density in each well was determined 24 h after the addition of Alamar blue at 540 nm and 570 nm. Alternatively, viable and dead cells were counted using Trypan blue.

Take `C=CCn1c(=O)n([C@@H]2O[C@H](CO)[C@@H](O)[C@H]2O)c2nc(N)[nH]c(=O)c21` [loxoribine, 7-allyl-7,8-dihydro-8-oxo-guanosine]: in assay [1], the “time at which IκBα was phosphorylated (maximum phosphorylation)” value is listed as “thirty”. For the same compound, the “proportion of cells in G0/G1 or G2/M phases versus unstimulated cells” value in the assay on A549 cells was “did not observe any significant differences”. In addition, in assay [2], the “Bcl-2 expression compared to untreated cells” value is listed as “increased expression of Bcl-2”. In addition, in assay [3], the “increase in Bcl-2 expression” value is reported as 100 fold. Besides, the “cell viability after chemotherapy when stimulated prior to induction of apoptosis” value in the assay with A549 and SK-MES cells is listed as “significantly higher viability”.
With Poly U, the “time at which IκBα was phosphorylated (maximum phosphorylation)” value in assay [1] is reported as “thirty”. The “proportion of cells in G0/G1 or G2/M phases versus unstimulated cells” value in the assay with A549 cells was “did not observe any significant differences”. For the same compound, the “Bcl-2 expression compared to untreated cells” value in assay [2] is “increased expression of Bcl-2”. Further, the “increase in Bcl-2 expression” value in assay [3] is given as 100 fold. Moreover, the “cell viability after chemotherapy when stimulated prior to induction of apoptosis” value in the assay on A549 and SK-MES cells is “significantly higher viability”.
